This is an account of results in ChEMBL document CHEMBL1201862, “PubChem BioAssay data set” (2004).

Test systems include MCF7; A549; MDA-N; TK-10; HCC 2998; SK-MEL-2; M14; HT-29; Hs-578T; NCI-H460; CAKI-1; MDA-MB-435; PC-3; SF-295; IGROV-1; HOP-62; 786-0; Malme-3M; A498.
Common to all, as to assay: inhibition of tumour cell growth, NCI panel, 48 h

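Test compounds were applied to cells in 96-well plates for 48 hours at 5 doses. GI50 is the concentration that inhibits growth by half.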 Active and inactive are the calls of the source. Rule as the data show it: active = GI50 up to about 1.1 µM and inactive = higher. Starred links: 1 amine or outer side, 2 acyl side, 3 side chain; linkers in the order of their positions; H or OH if unused. Non-standard residues stand in square brackets, D forms with d. Residues, ends and D or L forms follow the SMILES beside them. *: point of attachment. X34 = CC(=O)N(C)SCC(N[*:1])C(=O)[*:2]; Cbz = O=C(OCc1ccccc1)*; Bn = c1ccc(C*)cc1; For = O=C*

As to `CCOC(=O)[C@@H]1C[C@H]1c1ccc(O)c(O)c1`, the GI50 in the test on MCF7 is 43.9 µM (inactive); in the test on A549, 41.3 µM (inactive); in the test on MDA-N, 12.7 µM (inactive); in the test on TK-10 it was 20.7 µM (inactive); in the test on HCC 2998, 31.6 µM (inactive); with SK-MEL-2, 18.2 µM (inactive). The GI50 in the test on M14 was 34.8 µM (inactive); with HT-29, 55.5 µM (inactive); in the test with Hs-578T, 28.4 µM (inactive); with NCI-H460 it was 58.2 µM (inactive); with CAKI-1 it was 29.7 µM (inactive); in the test on MDA-MB-435 it was 10.2 µM (inactive). The GI50 is 14.6 µM (inactive) with PC-3; > 100 µM (inactive) in the test with SF-295; 24.4 µM (inactive) in the test on IGROV-1; 84.9 µM (inactive) in the test on HOP-62; 41.4 µM (inactive) in the test on 786-0; 31.8 µM (inactive) with Malme-3M.
Regarding `O=c1[nH]c2nc3ccccc3c(=O)n2/c1=C/c1ccc(O)cc1`, the GI50 in the test on MCF7 is 31 µM (inactive); in the test with A549, 40.6 µM (inactive); in the test with MDA-N it was 32.3 µM (inactive); in the test with TK-10, 53 µM (inactive); in the test with HCC 2998 it was 22.2 µM (inactive); with SK-MEL-2, 75.3 µM (inactive). Also, the GI50 in the test on M14 was 36.8 µM (inactive); in the test on HT-29 it was 24 µM (inactive); with Hs-578T, 18.6 µM (inactive); in the test on CAKI-1, 43.3 µM (inactive); in the test on MDA-MB-435 it was 25.5 µM (inactive); in the test on PC-3, 45.3 µM (inactive). Also, the GI50 with SF-295 was 46.9 µM (inactive); with IGROV-1 it was 39.2 µM (inactive); in the test on HOP-62, 64 µM (inactive); in the test with 786-0, 34.8 µM (inactive); with Malme-3M, 39.1 µM (inactive).
In the case of `CSC1=N/C(=C\c2ccc(Cl)cc2)C(=O)N1CN1CCOCC1`, the GI50 was 5.75 µM (inactive) with MCF7; > 100 µM (inactive) with A549; 47.8 µM (inactive) with MDA-N; 27.5 µM (inactive) in the test with TK-10; 17.6 µM (inactive) in the test with A498; 52.8 µM (inactive) in the test with SK-MEL-2. The GI50 in the test on M14 is 39 µM (inactive); in the test with HT-29, 27.5 µM (inactive); in the test with Hs-578T, 33 µM (inactive); in the test with MDA-MB-435, 58.3 µM (inactive); in the test on PC-3 it was 38.9 µM (inactive); in the test on SF-295 it was > 100 µM (inactive). Also, the GI50 with IGROV-1 is 27.4 µM (inactive); in the test with HOP-62, 23.4 µM (inactive); in the test with 786-0, 33.4 µM (inactive); in the test on Malme-3M it was 52.2 µM (inactive).
`CC(C)(/C=N/O)/[N+]([O-])=C/c1ccccc1`: the GI50 in the test on MCF7, in the test with A549, in the test on MDA-N, in the test with TK-10, with HCC 2998 and in the test on SK-MEL-2 was > 100 µM (inactive) in each case. The GI50 in the test with M14, in the test with HT-29, with Hs-578T, with NCI-H460, with CAKI-1 and in the test with MDA-MB-435 was > 100 µM (inactive) throughout. Besides, the GI50 in the test on PC-3, in the test on SF-295, with IGROV-1, in the test on HOP-62, with 786-0 and with Malme-3M was > 100 µM (inactive) throughout.
Take `CCc1ncnc2cc(OCC3CO3)c(OC)cc12` (stereo not given): the GI50 in the test with MCF7 is 0.557 µM (active); in the test with A549, 4.49 µM (inactive); with MDA-N, 5.94 µM (inactive); in the test on TK-10, 10.8 µM (inactive); in the test on A498, 21.3 µM (inactive); in the test with SK-MEL-2 it was 3.32 µM (inactive). Also, the GI50 in the test on M14 was 5.28 µM (inactive); in the test with HT-29, 4.83 µM (inactive); in the test with Hs-578T, 5.77 µM (inactive); in the test on NCI-H460, 5.53 µM (inactive); in the test on CAKI-1, 5.06 µM (inactive); in the test on MDA-MB-435, 5.12 µM (inactive). The GI50 with PC-3 is 7.31 µM (inactive); in the test with SF-295, 3.15 µM (inactive); with IGROV-1, 1.06 µM (active); in the test with HOP-62 it was 3.18 µM (inactive); in the test on 786-0 it was 0.902 µM (active); in the test with Malme-3M, 12.3 µM (inactive).
As to `CCOC(=O)c1c(N2CCOCC2)[nH]c(=O)c(C(c2ccc(OC)cc2)c2c(O)c(C(=O)OCC)c(N3CCOCC3)[nH]c2=O)c1O`, the GI50 in the test with MCF7, in the test on A549, in the test on MDA-N, with TK-10, with A498 and with HCC 2998 was > 100 µM (inactive) throughout. Also, the GI50 with M14, with HT-29, in the test with Hs-578T, with NCI-H460, with CAKI-1 and in the test with MDA-MB-435 was > 100 µM (inactive) each time. In addition, the GI50 with PC-3, with SF-295, in the test with HOP-62, in the test on 786-0 and with Malme-3M was > 100 µM (inactive) throughout.
As to `NS(=O)(=O)c1ccc(NC(=S)N/C=C2\C(=O)Nc3ccccc3C2=O)cc1`, the GI50 in the test with MCF7, with A549, in the test with MDA-N, in the test with TK-10, in the test with HCC 2998 and in the test on SK-MEL-2 was > 100 µM (inactive) in each case. Further, the GI50 was > 100 µM (inactive) with M14; > 100 µM (inactive) in the test with HT-29; > 100 µM (inactive) with Hs-578T; > 100 µM (inactive) in the test on NCI-H460; 20.1 µM (inactive) in the test on CAKI-1; > 100 µM (inactive) in the test with MDA-MB-435. The GI50 in the test with PC-3, with SF-295, with IGROV-1, in the test with HOP-62 and in the test with 786-0 was > 100 µM (inactive) throughout.
On to `C=CCC(C(=O)Nc1cccc2nc[nH]c12)C(=O)OCC` (stereo not given), for which the GI50 in the test with MCF7, with A549, in the test on MDA-N, in the test on TK-10, in the test with A498 and in the test on HCC 2998 was > 100 µM (inactive) each time. Also, the GI50 in the test with SK-MEL-2, in the test on M14, in the test with HT-29, in the test with Hs-578T, in the test on NCI-H460 and with MDA-MB-435 was > 100 µM (inactive) each time. Further, the GI50 with PC-3, in the test with SF-295, in the test on IGROV-1, in the test on HOP-62 and in the test on 786-0 was > 100 µM (inactive) in each case.
As to `Nc1ccccc1C(=O)CC1OC(=O)c2ccccc21` (stereo not given), the GI50 is > 100 µM (inactive) with MCF7; 65.6 µM (inactive) with A549; 78.7 µM (inactive) in the test with MDA-N; > 100 µM (inactive) with TK-10; 43.2 µM (inactive) with A498; 14 µM (inactive) with SK-MEL-2. Further, the GI50 with M14 was > 100 µM (inactive); in the test on HT-29 it was > 100 µM (inactive); with Hs-578T, 46.8 µM (inactive); in the test with NCI-H460, 61.2 µM (inactive); in the test on MDA-MB-435, 57.4 µM (inactive); in the test with PC-3, 41.7 µM (inactive). The GI50 with SF-295 is > 100 µM (inactive); in the test with IGROV-1 it was > 100 µM (inactive); with HOP-62 it was 91 µM (inactive); in the test with 786-0 it was 88.5 µM (inactive); in the test on Malme-3M, 50.5 µM (inactive).
With `CC(=O)N(C)SCC(NC(=O)C(Cc1ccccc1)NC(=O)OCc1ccccc1)C(=O)NC(Cc1ccccc1)C(=O)NC(Cc1cn(C=O)c2ccccc12)C(=O)NC(CCCCNC(=O)OCc1ccccc1)C(=O)NC(C(=O)NC(CSN(C)C(C)=O)C(=O)NC(C(N)=O)C(C)OCc1ccccc1)C(C)OCc1ccccc1` (stereo not given) (Cbz-F[X34]FW(For)K(Cbz)T(Bn)[X34]T(Bn)-NH2; configuration not given here), the GI50 in the test with MCF7 is > 100 µM (inactive); in the test with A549, > 100 µM (inactive); in the test with MDA-N, > 100 µM (inactive); in the test on TK-10 it was 20.6 µM (inactive); in the test with HCC 2998 it was > 100 µM (inactive); in the test with SK-MEL-2 it was 3.77 µM (inactive). The GI50 is 46.9 µM (inactive) in the test with M14; > 100 µM (inactive) with HT-29; 8.63 µM (inactive) with Hs-578T; > 100 µM (inactive) in the test with NCI-H460; > 100 µM (inactive) in the test with MDA-MB-435; > 100 µM (inactive) in the test on PC-3. The GI50 is 16.1 µM (inactive) in the test with SF-295; 68.9 µM (inactive) in the test with IGROV-1; 82.8 µM (inactive) in the test with HOP-62; 24.1 µM (inactive) in the test on 786-0; 40.4 µM (inactive) in the test with Malme-3M.
For `CC[C@H](CC[C@@H](C)[C@H]1CC[C@H]2[C@@H]3CC=C4C[C@@H](O)CC[C@]4(C)[C@H]3CC[C@]12C)C(C)C` [BETA-SITOSTEROL], the GI50 in the test on MCF7, in the test on A549, with MDA-N, with TK-10, in the test with HCC 2998 and in the test with SK-MEL-2 was > 100 µM (inactive) in each case. Moreover, the GI50 in the test on M14, with HT-29, in the test with Hs-578T, in the test with NCI-H460, in the test on CAKI-1 and with MDA-MB-435 was > 100 µM (inactive) in each case. The GI50 with PC-3, in the test with SF-295, in the test on IGROV-1, with HOP-62, in the test on 786-0 and in the test on Malme-3M was > 100 µM (inactive) throughout.
